Test results taken from ChEMBL document CHEMBL2424615, “Design, synthesis, and characterization of novel tetrahydropyran-based bacterial topoisomerase inhibitors with potent anti-gram-positive activity” (J Med Chem, 2013).
pIC50: −log10 of the molar value.

Experiments:
[1] = molecular target: DNA gyrase (Staphylococcus aureus, UniProt P0A0K8+P20831); assay: Inhibition of wild type Staphylococcus aureus DNA gyrase subunit 2GyrA/2GyrB assessed as pBR322 supercoiling after 1 hr; format: protein-complex assay
[2] = system: Streptococcus pneumoniae; assay: Antibacterial activity against wild type Streptococcus pneumoniae ATCC 49619 assessed as growth inhibition by broth microdilution method; format: functional
[3] = system: Pseudomonas aeruginosa; assay: Antibacterial activity against wild type Pseudomonas aeruginosa ATCC 27853 assessed as growth inhibition by broth microdilution method; format: functional
[4] = molecular target: DNA gyrase subunit A (Staphylococcus aureus, UniProt P20831, S84L); assay: Inhibition of quinolone-resistant Staphylococcus aureus A-798 DNA gyrase S84L mutant assessed as pBR322 supercoiling after 1 hr
[5] = system: Enterococcus faecium; assay: Antibacterial activity against vancomycin-resistant Enterococcus faecium A-949 assessed as growth inhibition by broth microdilution method; format: functional
[6] = system: Staphylococcus aureus; assay: Antibacterial activity against NXL-101-resistant Staphylococcus aureus harboring DNA gyrase D83N mutant assessed as growth inhibition by broth microdilution method; format: functional
[7] = system: Staphylococcus aureus; assay: Antibacterial activity against methicillin and quinolone-resistant Staphylococcus aureus A-798 assessed as growth inhibition by broth microdilution method; format: functional
[8] = system: Staphylococcus aureus; assay: Antibacterial activity against wild type Staphylococcus aureus ATCC 29213 assessed as growth inhibition by broth microdilution method; format: functional
[9] = molecular target: Topoisomerase IV (Staphylococcus aureus, UniProt P0C1S7+P0C1U9); assay: Inhibition of wild type Staphylococcus aureus ATCC 29213 topoisomerase-4 subunit 2GrlA/2GrlB assessed as pBR322 relaxation after 1 hr; format: protein-complex assay
[10] = system: Escherichia coli; assay: Antibacterial activity against wild type Escherichia coli ATCC 25922 assessed as growth inhibition by broth microdilution method; format: functional
[11] = Inhibition of wild type Escherichia coli ATCC 25922 DNA gyrase subunit 2GyrA/2GyrB assessed as pBR322 supercoiling after 1 hr
[12] = Inhibition of wild type Escherichia coli ATCC 25922 DNA topoisomerase-4 subunit 2ParC/2ParE assessed as pBR322 relaxation after 1 hr
[13] = molecular target: DNA gyrase subunit A (Staphylococcus aureus, UniProt P20831, D83N); assay: Inhibition of NXL-101-resistant Staphylococcus aureus DNA gyrase D83N mutant assessed as pBR322 supercoiling after 1 hr

Compound	pIC50 [1]	MIC [2] [µg/mL]	MIC [3] [µg/mL]	pIC50 [4]	MIC [5] [µg/mL]	MIC [6] [µg/mL]	MIC [7] [µg/mL]	MIC [8] [µg/mL]	pIC50 [9]	MIC [10] [µg/mL]	pIC50 [11]	pIC50 [12]	pIC50 [13]
COc1ccc2ncc(F)c([C@@H](O)CC[C@@H]3CCN(CCSc4cccs4)C[C@@H]3C(=O)O)c2c1	6.90	1	> 8	6.90	1	> 8	0.25	0.125	3.89	> 8	4.49	5.70	3.89
N#Cc1ccc2ccc(=O)n(CCN3CC[C@H](NCc4cc5c(cn4)OCCO5)[C@H](F)C3)c2c1	7.52	0.25	> 8	7.52	0.5	1	0.015	0.015	5.10	8	5.10	6.90	4.49
